Experimental data reported in US8378104B2 (OSI Pharmaceuticals, LLC, priority 2010, dated 2013).
Structures can show the parent of a compound that is named as a salt.

Key:
[1] = target: T1, TAK1-TAB1 fusion protein (Homo sapiens, UniProt O43318); assay: TAK1 biochemical assay (AlphaScreen, GST-MAP2K7 substrate); conditions: TAK1-TAB1 fusion protein, GST-MAP2K7 substrate; read-out: mean TAK1 IC50 (Col. A)
T1 construct: purchased Carna
T1 sequence (O43318 with tags, fused parts or gaps limits assumed): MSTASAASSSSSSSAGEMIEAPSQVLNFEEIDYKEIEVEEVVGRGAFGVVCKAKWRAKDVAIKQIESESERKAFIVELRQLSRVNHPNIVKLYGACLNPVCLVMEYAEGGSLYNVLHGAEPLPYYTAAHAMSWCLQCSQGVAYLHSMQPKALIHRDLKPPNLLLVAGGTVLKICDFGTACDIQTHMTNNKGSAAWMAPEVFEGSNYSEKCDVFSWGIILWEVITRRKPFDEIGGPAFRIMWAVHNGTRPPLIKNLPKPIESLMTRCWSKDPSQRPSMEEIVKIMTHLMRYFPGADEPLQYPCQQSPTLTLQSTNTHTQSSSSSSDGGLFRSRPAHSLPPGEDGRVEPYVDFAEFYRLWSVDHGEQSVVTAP

[2] = test system: pJNK in HCT-116 cells; assay: Phospho-JNK (Thr183/Tyr185) Meso Scale ELISA assay, TNFα-stimulated HCT-116 cells; type: cell-based; conditions: Homo sapiens, read-out: mean HCT-116 pJNK ELISA IC50 (Col. B)
Method: Detailed below are ELISA assays for pJNK and p38, and a TAK1 biochemical assay. […] In Table 1, Col.
Phospho-JNK (Thr183/Tyr185) Meso Scale ELISA Assay
• 1. Plate HCT-116 cells at 25,000 per well in 100 uL in 96 well clear dishes in normal growth medium. Day 2: • 1. Aspirate medium and replace with 90 μl reduced serum growth medium (1% FCS), incubate for 2 hours at 37° C. • 2. Make drugs at 10× in reduced serum medium and add 10 uL per well. • 3. Incubate at 37° C. for 4 hrs. • 4. Bring capture plates to room temperature. • 5. Block with 150 μl Blocking Solution (provided with kit) (600 mg Blocker A into 20 mL 1× Wash Buffer per plate) at room temperature with shaking. • 6. Wash plates 4× with 200 μl 1× wash buffer (10× provided with kit) before transferring lysates. • 7. Dilute TNFα to […] in reduced serum medium (this makes a 10× working stock). • 8. Add 10 μl TNFα to all wells except negative control wells, final concentration is 10 ng/mL. • 9. Incubate at 37° C. for 10 minutes. • 10. Remove medium by flicking into sink • 11. Wash cells with 100 uL ice cold PBS. • 12. Remove PBS by flicking into sink and patting on paper towels. • 13. Lyse cells in 50 μl ice cold 1× Complete Lysis Buffer plus Phosphatase and Protease inhibitors (all provided with kit) (10 mL Tris Lysis Buffer+200 μl Protease inhibitor solution+100 μl Phosphatase inhibitor I+100 μl Phosphatase inhibitor II). • 14. Incubate with shaking at 4° C. for 30 minutes. • 15. Transfer 45 μl to capture plate, cover with adhesive cover, and incubate at 4° C. over night with shaking. • Day 3: • 1. Wash plates 4× with 200 μl 1× wash buffer (10× provided with kit). • 2. […] Incubate at room temperature with shaking for 1 hour. • 4. Wash 4× with 200 μl 1× Wash Buffer. • 5. […] Read on Sector Imager. Phospho-p38 Meso Scale ELISA Assay Day 1: • 1. Plate HCT-116 cells at 25,000 per well in 100 uL in 96 well clear dishes in normal growth medium. zday 2: • 1. Aspirate medium and replace with 90 μl reduced serum growth medium (1% FCS), incubate for 2 hours at 37° C. • 2. Make drugs at 10× in reduced serum medium and add 10 uL per well. • 3. Incubate at 37° C. for 4 hrs. • 4. Bring capture plates to room temperature. • 5. Block with 150 μl Blocking Solution (provided with kit) (600 mg Blocker A into 20 mL 1× Wash Buffer per plate) at room temperature with shaking. • 6. Wash plates 4× with 200 μl 1× wash buffer (10× provided with kit) before transferring lysates. • 7. Dilute TNFα to […] in reduced serum medium (this makes a 10× working stock). • 8. Add 10 μl TNFα to all wells except negative control wells, final concentration is 10 ng/mL. • 9. Incubate at 37° C. for 10 minutes. • 10. Remove medium by flicking into sink • 11. Wash cells with 100 uL ice cold PBS. • 12. Remove PBS by flicking into sink and patting on paper towels. • 13. Lyse cells in 50 μl ice cold 1× Complete Lysis Buffer plus phosphatase and protease inhibitors (all provided with kit) (10 mL Tris Lysis Buffer+200 μl Protease inhibitor solution+100 μl Phosphatase inhibitor I+100 μl Phosphatase inhibitor II). • 14. Incubate with shaking at 4° C. for 30 minutes. • 15. Dilute lysates before transferring to capture plate with 100 μl Complete p38 Lysate • Dilution Buffer (provided with kit) (10 mL of Diluent 20±200 μl Protease inhibitor solution+100 μl Phosphatase inhibitor I+100 μl Phosphatase inhibitor II). • 16. Transfer 50 μl of diluted lysates to capture plate, cover with adhesive cover, and incubate at 4° C. over night with shaking. Day 3: • 1. Wash plates 4× with 200 μl 1× wash buffer (10× provided with kit). • 2. […] Incubate at room temperature with shaking for 1 hour. • 4. Wash 4× with 200 μl 1× Wash Buffer. • 5. […] Read on Sector Imager. TAK1 Biochemical Assay

| SMILES | IC50 [1] [nM] | IC50 [2] [nM] |
| --- | --- | --- |
| Nc1ncc(-c2cnn([C@@H]3CCC[C@@H](O)C3)c2)c2cc(-c3csc4cnccc34)oc12 (relative stereo) [Example 309, trans-3-[4-(7-amino-2-thieno[2,3-c]pyridin-3-yl-furo[2,3-c]pyridin-4-yl)-pyrazol-1-yl]-cyclohexanol] | < 100 | < 100 |
| Nc1ncc(-c2cnn([C@@H]3CCC[C@H](O)C3)c2)c2cc(-c3csc4cnccc34)oc12 (relative stereo) [Example 310, cis-3-[4-(7-amino-2-thieno[2,3-c]pyridin-3-yl-furo[2,3-c]pyridin-4-yl)-pyrazol-1-yl]-cyclohexanol] | < 100 | < 100 |
| Nc1ncc(-c2cnn([C@@H]3CCC[C@@H](O)C3)c2)c2cc(-c3cccc4cnsc34)oc12 (relative stereo) [Example 313, trans-3-[4-(7-amino-2-benzo[d]isothiazol-7-yl-furo[2,3-c]pyridin-4-yl)-pyrazol-1-yl]-cyclohexanol] | < 100 | 100 to 1000 |
| Nc1ncc(-c2cnn([C@H]3CC[C@H](O)CC3)c2)c2cc(-c3cccc4ncsc34)oc12 [Example 231, trans-4-{4-[7-amino-2-(1,3-benzothiazol-7-yl)furo[2,3-c]pyridin-4-yl]-1H-pyrazol-1-yl}cyclohexanol diformate salt] | < 100 | < 100 |
| Nc1ncc(-c2cnn([C@H]3CC[C@H](O)CC3)c2)c2cc(-c3cccc4sncc34)oc12 [Example 242, trans-4-{4-[7-amino-2-(1,2-benzothiazol-4-yl)furo[2,3-c]pyridin-4-yl]-1H-pyrazol-1-yl}cyclohexanol Diformate Salt] | < 100 | < 100 |
| Nc1ncc(-c2cnn([C@H]3CC[C@H](O)CC3)c2)c2cc(-c3csc4cnc(Cl)cc34)oc12 [Example 247, trans-4-{4-[7-amino-2-(5-chlorothieno[2,3-c]pyridin-3-yl)furo[2,3-c]pyridin-4-yl]-1H-pyrazol-1-yl}cyclohexanol bis(trifluoroacetate)] | 100 to 1000 | 100 to 1000 |
| Nc1ncc(-c2cnn([C@H]3CC[C@H](O)CC3)c2)c2cc(-c3ccc4c(c3)CC(=O)N4)oc12 [Example 405, 5-{7-amino-4-[1-(trans-4-hydroxycyclohexyl)-1H-pyrazol-4-yl]furo[2,3-c]pyridin-2-yl}-1,3-dihydro-2H-indol-2-one] | 1000 to 10000 |  |
| Nc1ncc(-c2cnn([C@H]3CC[C@H](O)CC3)c2)c2cc(-c3ccc4cn[nH]c4c3)oc12 [Example 406, trans-4-{4-[7-amino-2-(1H-indazol-6-yl)furo[2,3-c]pyridin-4-yl]-1H-pyrazol-1-yl}cyclohexanol] | 100 to 1000 |  |
| N#Cc1cc(-c2cc3c(-c4cnn([C@H]5CC[C@H](O)CC5)c4)cnc(N)c3o2)ccc1N [Example 407, 2-amino-5-{7-amino-4-[1-(trans-4-hydroxycyclohexyl)-1H-pyrazol-4-yl]furo[2,3-c]pyridin-2-yl}benzonitrile] | 100 to 1000 |  |

Results, then the compound that gave them:

| IC50 [1] [nM] | IC50 [2] [nM] | SMILES |
| --- | --- | --- |
| 100 to 1000 | 100 to 1000 | CC(=O)N1CCC(n2cc(-c3cnc(N)c4oc(-c5ccc(F)c6cnsc56)cc34)cn2)CC1 [Example 223, 1-(4-{4-[7-amino-2-(4-fluoro-1,2-benzothiazol-7-yl)furo[2,3-c]pyridin-4-yl]-1H-pyrazol-1-yl}piperidin-1-yl)ethanone diformate salt] |
| < 100 | < 100 | CC(=O)N1CCC(n2cc(-c3cnc(N)c4oc(-c5cccc6ncsc56)cc34)cn2)CC1 [Example 225, 1-(4-{4-[7-amino-2-(1,3-benzothiazol-7-yl)furo[2,3-c]pyridin-4-yl]-1H-pyrazol-1-yl}piperidin-1-yl)ethanone diformate salt] |
| < 100 | < 100 | Nc1ncc(-c2cnn(C3CCN(C(=O)C4CC4)CC3)c2)c2cc(-c3csc4cnccc34)oc12 [Example 228, (4-{4-[7-amino-2-(thieno[2,3-c]pyridin-3-yl)furo[2,3-c]pyridin-4-yl]-1H-pyrazol-1-yl}piperidin-1-yl)(cyclopropyl)methanone diformate salt] |
| < 100 | < 100 | CC(=O)N1CCC(n2cc(-c3cnc(N)c4oc(-c5cc(F)cc6cnsc56)cc34)cn2)CC1 [Example 237, 1-(4-{4-[7-amino-2-(5-fluoro-1,2-benzothiazol-7-yl)furo[2,3-c]pyridin-4-yl]-1H-pyrazol-1-yl}piperidin-1-yl)ethanone diformate salt] |
| 100 to 1000 | 100 to 1000 | CC(=O)N1CCC(n2cc(-c3cnc(N)c4oc(-c5c(F)ccc6cnsc56)cc34)cn2)CC1 [Example 239, 1-(4-{4-[7-amino-2-(6-fluoro-1,2-benzothiazol-7-yl)furo[2,3-c]pyridin-4-yl]-1H-pyrazol-1-yl}piperidin-1-yl)ethanone diformate salt] |
| < 100 | < 100 | CC(=O)N1CCC(n2cc(-c3cnc(N)c4oc(-c5cccc6sncc56)cc34)cn2)CC1 [Example 241, 1-(4-{4-[7-amino-2-(1,2-benzothiazol-4-yl)furo[2,3-c]pyridin-4-yl]-1H-pyrazol-1-yl}piperidin-1-yl)ethanone diformate Salt] |
| 100 to 1000 | 100 to 1000 | CC(=O)N1CCC(n2cc(-c3cnc(N)c4oc(-c5csc6cnc(Cl)cc56)cc34)cn2)CC1 [Example 246, 1-(4-{4-[7-amino-2-(5-chlorothieno[2,3-c]pyridin-3-yl)furo[2,3-c]pyridin-4-yl]-1H-pyrazol-1-yl}piperidin-1-yl)ethanone bis(trifluoroacetate)] |
| > 10000 |  | CC(=O)N1CCC(n2cc(-c3cnc(N)c4oc(C5=CCC6(CC5)OCCO6)cc34)cn2)CC1 [Example 408, 1-(4-{4-[7-amino-2-(1,4-dioxaspiro[4.5]dec-7-en-8-yl)furo[2,3-c]pyridin-4-yl]-1H-pyrazol-1-yl}piperidin-1-yl)ethanone] |
| 1000 to 10000 |  | CC(=O)N1CCC(n2cc(-c3cnc(N)c4oc(-c5ccnc6cc(Cl)ccc56)cc34)cn2)CC1 [Example 409, 1-(4-{4-[7-amino-2-(7-chloroquinolin-4-yl)furo[2,3-c]pyridin-4-yl]-1H-pyrazol-1-yl}piperidin-1-yl)ethanone] |
| > 10000 |  | CC(=O)N1CCC(n2cc(-c3cnc(N)c4oc(-c5ccccc5C(F)(F)F)cc34)cn2)CC1 [Example 411, 1-[4-(4-{7-amino-2-[2-(trifluoromethyl)phenyl]furo[2,3-c]pyridin-4-yl}-1H-pyrazol-1-yl)piperidin-1-yl]ethanone] |
